test system: T. cruzi (Dm28c-Luc) trypomastigotes; assay: microbe, parasite or virus in culture; type: cell-based, Trypanosoma cruzi; conditions: Trypanosoma cruzi, 24 h, Dm28c-Luc, 24 h, mean ± SD; read-out: Trypanocidal Activity Trypomastigotes IC50
Procedure: The screening assays were performed with T. cruzi clone Dm28c (TcI) genetically modified to express luciferase gene (Dm28c-Luc), kindly provided by Dr. Cristina Henriques. Trypomastigotes were isolated from T. cruzi-infected Vero cell monolayers (10:1 parasites/host cell ratio). On the 4th day post-infection (dpi), free trypomastigotes in the culture supernatant were harvested, and the number of parasites/mL was quantified in a Neubauer chamber.
The trypanocidal activity of the pyrazole-thiazoline derivatives was evaluated against trypomastigote and intracellular amastigote forms of T. cruzi (Dm28c-Luc). Tissue-derived trypomastigotes (1 × 10^6 parasites/well) were incubated with pyrazole-thiazoline derivatives and Bz in different concentrations (0.41–100 µM) for 24 h at 37 °C in a humidified atmosphere and 5% CO2. The parasite viability was determined by the addition of luciferin (300 µg/mL), followed by luminescence detection on the GloMax microplate reader (Promega Corporation, Madison, WI, USA).
(§1) After 72 h of treatment, luciferin (300 µg/mL) was added to the culture, and the viability of the parasites was assessed by reading the luminescent signal on the GloMax reader (Promega Corporation, Madison, WI, USA). Controls were also performed in non-toxic concentrations of DMSO (≤ 1%). The concentration that reduces the number of viable parasites by 50% (IC50) or 90% (IC90) was calculated by linear regression. The selectivity index (SI) was calculated as CC50/IC50 for each parasite form.

SMILES | IC50 [µM]
Nc1c(C2=NCCS2)cnn1-c1cccc(Br)c1 [Compound 1j, 2-(5-amino-1-(3-bromophenyl)-1H-pyrazol-4-yl)-4,5-dihydrothiazole] | 52.3 ± 3.4
Nc1c(C2=NCCS2)cnn1-c1cc(Cl)cc(Cl)c1 [Compound 1d, 2-(5-amino-1-(3,5-dichlorophenyl)-1H-pyrazol-4-yl)-4,5-dihydrothiazole] | > 100
Nc1c(C2=NCCS2)cnn1-c1cccc(Cl)c1Cl [Compound 1l, 2-(5-amino-1-(2,3-dichlorophenyl)-1H-pyrazol-4-yl)-4,5-dihydrothiazole] | > 100
Nc1c(C2=NCCS2)cnn1-c1ccccc1 [Compound 1a, 2-(5-amino-1-phenyl-1H-pyrazol-4-yl)-4,5-dihydrothiazole] | 66.4 ± 2.7

same assay, conditions: Trypanosoma cruzi; Dm28c-Luc, 24 h, mean ± SD; read-out: Trypanocidal Activity Trypomastigotes IC90

SMILES | IC90 [µM]
Nc1c(C2=NCCS2)cnn1-c1cccc(Br)c1 [Compound 1j, 2-(5-amino-1-(3-bromophenyl)-1H-pyrazol-4-yl)-4,5-dihydrothiazole] | > 100
Nc1c(C2=NCCS2)cnn1-c1cc(Cl)cc(Cl)c1 [Compound 1d, 2-(5-amino-1-(3,5-dichlorophenyl)-1H-pyrazol-4-yl)-4,5-dihydrothiazole] | > 100
Nc1c(C2=NCCS2)cnn1-c1cccc(Cl)c1Cl [Compound 1l, 2-(5-amino-1-(2,3-dichlorophenyl)-1H-pyrazol-4-yl)-4,5-dihydrothiazole] | > 100
Nc1c(C2=NCCS2)cnn1-c1ccccc1 [Compound 1a, 2-(5-amino-1-phenyl-1H-pyrazol-4-yl)-4,5-dihydrothiazole] | > 100

same assay, conditions: selectivity index vs Vero cells

SMILES | Trypomastigotes SI (CC50 of Vero cells/IC50)
Nc1c(C2=NCCS2)cnn1-c1cccc(Br)c1 [Compound 1j, 2-(5-amino-1-(3-bromophenyl)-1H-pyrazol-4-yl)-4,5-dihydrothiazole] | >9.5
Nc1c(C2=NCCS2)cnn1-c1cccc(Cl)c1Cl [Compound 1l, 2-(5-amino-1-(2,3-dichlorophenyl)-1H-pyrazol-4-yl)-4,5-dihydrothiazole] | <5
Nc1c(C2=NCCS2)cnn1-c1ccccc1 [Compound 1a, 2-(5-amino-1-phenyl-1H-pyrazol-4-yl)-4,5-dihydrothiazole] | 3.7

test system: T. cruzi (Dm28c-Luc) intracellular amastigotes; assay: Trypanocidal activity against intracellular amastigotes in infected Vero cell monolayers; type: cell-based, Trypanosoma cruzi; conditions: Trypanosoma cruzi, Vero, 72 h, Dm28c-Luc in Vero cells, 72 h, mean ± SD; read-out: Trypanocidal Activity Intracellular Amastigotes IC50
Procedure: The susceptibility of intracellular amastigotes to pyrazole-thiazoline derivatives (series 1 and 2) was evaluated using 24 h T. cruzi-infected Vero cell monolayers (10:1 parasite/host cell ratio). Then, the cultures were washed with PBS to remove non-internalized parasites, and 200 μL of fresh medium with a serial dilution of pyrazole-thiazoline derivatives and Bz (0.41–100 µM) was added for 72 h at 37 °C.
as §1

SMILES | IC50 [µM]
Nc1c(C2=NCCS2)cnn1-c1cccc(Br)c1 [Compound 1j, 2-(5-amino-1-(3-bromophenyl)-1H-pyrazol-4-yl)-4,5-dihydrothiazole] | 26.6 ± 3.1
Nc1c(C2=NCCS2)cnn1-c1cc(Cl)cc(Cl)c1 [Compound 1d, 2-(5-amino-1-(3,5-dichlorophenyl)-1H-pyrazol-4-yl)-4,5-dihydrothiazole] | 63.2 ± 5.4
Nc1c(C2=NCCS2)cnn1-c1cccc(Cl)c1Cl [Compound 1l, 2-(5-amino-1-(2,3-dichlorophenyl)-1H-pyrazol-4-yl)-4,5-dihydrothiazole] | 11.1 ± 2
Nc1c(C2=NCCS2)cnn1-c1ccccc1 [Compound 1a, 2-(5-amino-1-phenyl-1H-pyrazol-4-yl)-4,5-dihydrothiazole] | 80.7 ± 3.9

same assay, conditions: Trypanosoma cruzi, Vero, pIC50 = −log IC50, Dm28c-Luc clone; read-out: Intracellular Amastigotes pIC50 (converted)

SMILES | IC50 [µM]
Nc1c(C2=NCCS2)cnn1-c1cccc(Br)c1 [Compound 1j, 2-(5-amino-1-(3-bromophenyl)-1H-pyrazol-4-yl)-4,5-dihydrothiazole] | 26.9
Nc1c(C2=NCCS2)cnn1-c1cc(Cl)cc(Cl)c1 [Compound 1d, 2-(5-amino-1-(3,5-dichlorophenyl)-1H-pyrazol-4-yl)-4,5-dihydrothiazole] | 64.6
Nc1c(C2=NCCS2)cnn1-c1cccc(Cl)c1Cl [Compound 1l, 2-(5-amino-1-(2,3-dichlorophenyl)-1H-pyrazol-4-yl)-4,5-dihydrothiazole] | 11.2
Nc1c(C2=NCCS2)cnn1-c1ccccc1 [Compound 1a, 2-(5-amino-1-phenyl-1H-pyrazol-4-yl)-4,5-dihydrothiazole] | 81.3

same assay, conditions: Trypanosoma cruzi; Dm28c-Luc in Vero cells, 72 h, mean ± SD; read-out: Trypanocidal Activity Intracellular Amastigotes IC90

SMILES | IC90 [µM]
Nc1c(C2=NCCS2)cnn1-c1cccc(Br)c1 [Compound 1j, 2-(5-amino-1-(3-bromophenyl)-1H-pyrazol-4-yl)-4,5-dihydrothiazole] | > 100
Nc1c(C2=NCCS2)cnn1-c1cc(Cl)cc(Cl)c1 [Compound 1d, 2-(5-amino-1-(3,5-dichlorophenyl)-1H-pyrazol-4-yl)-4,5-dihydrothiazole] | > 100
Nc1c(C2=NCCS2)cnn1-c1cccc(Cl)c1Cl [Compound 1l, 2-(5-amino-1-(2,3-dichlorophenyl)-1H-pyrazol-4-yl)-4,5-dihydrothiazole] | > 100
Nc1c(C2=NCCS2)cnn1-c1ccccc1 [Compound 1a, 2-(5-amino-1-phenyl-1H-pyrazol-4-yl)-4,5-dihydrothiazole] | > 100

same assay, conditions: selectivity index vs Vero cells

SMILES | Intracellular Amastigotes SI (CC50 of Vero cells/IC50)
Nc1c(C2=NCCS2)cnn1-c1cccc(Br)c1 [Compound 1j, 2-(5-amino-1-(3-bromophenyl)-1H-pyrazol-4-yl)-4,5-dihydrothiazole] | >18.7
Nc1c(C2=NCCS2)cnn1-c1cc(Cl)cc(Cl)c1 [Compound 1d, 2-(5-amino-1-(3,5-dichlorophenyl)-1H-pyrazol-4-yl)-4,5-dihydrothiazole] | 6.6
Nc1c(C2=NCCS2)cnn1-c1cccc(Cl)c1Cl [Compound 1l, 2-(5-amino-1-(2,3-dichlorophenyl)-1H-pyrazol-4-yl)-4,5-dihydrothiazole] | >44.9
Nc1c(C2=NCCS2)cnn1-c1ccccc1 [Compound 1a, 2-(5-amino-1-phenyl-1H-pyrazol-4-yl)-4,5-dihydrothiazole] | 3.1

test system: not listed separately; assay: Cytotoxicity in vitro assay (CellTiter-Glo); type: cell-based; conditions: African green monkey, Vero cells, mean ± SD
Procedure: Vero cells, obtained from the Rio de Janeiro Cell Bank (BCRJ code 0245), were dissociated with trypsin–EDTA solution (0.025%), and maintained in RPMI 1640 medium supplemented with 10% fetal bovine serum (FBS) at 37 °C in a humidified atmosphere of 5% CO2.
The compound toxicity was evaluated in Vero cell cultures. Briefly, Vero cells were seeded in 96-well white culture plates at a density of 1.5 × 10^4 cells/well for 24 h at 37 °C and 5% CO2. Thereafter, the cell monolayers were washed with phosphate-buffered saline (PBS) and 200 μL of fresh medium with a serial dilution of the pyrazole-thiazoline derivatives and Bz (1.9–500 µM) added. The cell viability was determined by luminescent assay using the CellTiter-Glo Kit (Promega Corporation, Madison, WI, USA) based on the ATP level. After 72 h of treatment, 20 μL of CellTiter-Glo solution was added per well, and cultures were kept for 2 min under agitation. The luminescent signal was read on the GloMax reader (Promega Corporation, Madison, WI, USA). The concentration of compounds that reduced 50% of cell viability (CC50) was calculated by linear regression. At least three independent assays were performed in duplicate.

SMILES | CC50 at 72 h [µM]
Nc1c(C2=NCCS2)cnn1-c1cccc(Br)c1 [Compound 1j, 2-(5-amino-1-(3-bromophenyl)-1H-pyrazol-4-yl)-4,5-dihydrothiazole] | > 500
Nc1c(C2=NCCS2)cnn1-c1cc(Cl)cc(Cl)c1 [Compound 1d, 2-(5-amino-1-(3,5-dichlorophenyl)-1H-pyrazol-4-yl)-4,5-dihydrothiazole] | 416 ± 34.6
Nc1c(C2=NCCS2)cnn1-c1cccc(Cl)c1Cl [Compound 1l, 2-(5-amino-1-(2,3-dichlorophenyl)-1H-pyrazol-4-yl)-4,5-dihydrothiazole] | > 500
Nc1c(C2=NCCS2)cnn1-c1ccccc1 [Compound 1a, 2-(5-amino-1-phenyl-1H-pyrazol-4-yl)-4,5-dihydrothiazole] | 248 ± 22

test system: not given; assay: not given; conditions: not given

SMILES | melting point [°C]
Nc1c(C2=NCCS2)cnn1-c1cccc(Br)c1 [Compound 1j, 2-(5-amino-1-(3-bromophenyl)-1H-pyrazol-4-yl)-4,5-dihydrothiazole] | 171 to 173
Nc1c(C2=NCCS2)cnn1-c1cc(Cl)cc(Cl)c1 [Compound 1d, 2-(5-amino-1-(3,5-dichlorophenyl)-1H-pyrazol-4-yl)-4,5-dihydrothiazole] | 232 to 234
Nc1c(C2=NCCS2)cnn1-c1cccc(Cl)c1Cl [Compound 1l, 2-(5-amino-1-(2,3-dichlorophenyl)-1H-pyrazol-4-yl)-4,5-dihydrothiazole] | 188 to 190
Nc1c(C2=NCCS2)cnn1-c1ccccc1 [Compound 1a, 2-(5-amino-1-phenyl-1H-pyrazol-4-yl)-4,5-dihydrothiazole] | 176 to 178
